This is an account of results in patent US8044053B2, “Sulfonamide substituted pyrazoline compounds, their preparation and use as CB1 modulators” (Laboratories del Dr. Esteve, S.A., priority 2006, dated 2011).

Structures can show the parent of a compound that is named as a salt.

A word on the IC50: it is the concentration at which inhibition is half-maximal. The low end stands for inhibition by little substance, the high end for a need for much substance. The Ki is a measure of affinity in units of concentration, obtained from inhibition or displacement. Read a high Ki as a looser hold on the target.

The first assay concerns the target CB1-receptor (UniProt P20272). The experiment in a line: In-vitro determination of affinity (binding) to CB1-receptors, radioligand [3H]-CP55940. On the set-up: IC50; Ki; species or system human or rat. Conditions: Pharmacological Methods Part I. The protocol:
(§1) I. In-Vitro Determination of Affinity to CB1/CB2-Receptors
(§2) The in-vitro determination of the affinity of the inventive substituted pyrazoline compounds to CB1/CB2-Rezeptors is carried out as described in the publication of Ruth A. Ross, Heather C. Brockie et al., “Agonist-inverse agonist characterisation at CB1 and CB2 cannabinoid receptors of L-759633, L759656 and AM630”, British Journal of Pharmacology, 126, 665-672, (1999), whereby the transfected human CB1 and CB2 receptors of Receptor Biology, Inc. are used. The radioligand used for both receptors is [^3H]-CP55940. The respective parts of the description is hereby incorporated by reference and forms part of the present disclosure.
(§3) Rat Cerebellum CB1 Binding
(§4) Binding affinity to CB1 receptor was evaluated according to a modification of the method described by Govaerts et al., Eur J Pharmac Sci 23, 233-243 (2004). The respective parts of the description is hereby incorporated by reference and forms part of the present disclosure.
(§5) Briefly, cerebellum from male wistar rats (250-300 g) were carefully dissected on ice and homogenates were prepared with Potter-Helveheim in a cold 50 mM Tris-HCl solution containing 5 mM MgCl2, 1 mM EDTA and 0.25 M sucrose, pH 7.4. The suspension was centrifuged at 1,000×g for 5 minutes. The supernatants were collected and centrifuged 50,000×g for 15 minutes. The resulting pellets were then resuspended in Tris-HCl buffer without sucrose, homogenised and incubated for 15 min at 37° C. in an orbital shaker bath and centrifuged again at 50,000×g for 15 min. Pellets were weighted, resuspended in Tris-HCl buffer without sucrose, homogenised with Ultraturrax at 13,500 rpm for 3×5 seconds and alicuoted in 0.9 ml volumes in Eppendorf tubes. Alicuotes were centrifuged at 20,800×g for 5 minutes, supernatants discarded and pellets were frozen at −80° C. until use. Total protein concentration was determined using the Bio-Rad Lowry method based kit. Competitive binding experiments were performed in presence of 1 nM [^3H]-CP 55,940 in siliconised glass tubes containing 100 μg protein/tube resuspended in 1 ml final volume of 50 mM Tris-HCl, 5 mM MgCl2, 1 mM EDTA, 0.5% (w/v) bovine serum albumin, pH 7.4. Compounds were present at various concentrations and the non specific binding was determined in the presence of 10 μM HU-210. After 1 hour incubation at 30° C., the suspension was rapidly filtered through 0.5% PEI pre-treated GF/B fiber filters on a 96-well harvester and washed 3 times with 3 ml ice-cold binding buffer without bovine serum albumin. Radioactivity on filters was measured with Wallac Winspectral 1414 counter by liquid scintillation in 6 ml Ecoscint H (National Diagnostics, U.K.). Assays were made in triplicates.
(§6) Binding data were analysed by non-linear regression with the software GraphPad Prism Version 3.03.
(§7) The binding of the pyrazoline compounds of general formulae I, Ia and Ib to CB1-receptors was determined according to the method described in the section Pharmacological Methods, Part I.
In turn, `O=S(=O)(NCC1=NN(c2ccc(Cl)cc2Cl)C(c2ccc(Cl)cc2)C1)c1cccc(Cl)c1` (stereo not shown) [Example 1, 3-Chloro-N-[5-(4-chloro-phenyl)-1-(2,4-dichloro-phenyl)-4,5-dihydro-1H-pyrazol-3-ylmethyl]-benzenesulfonamide] gave an IC50 of 388 nM. This counts as sub-micromolar.

Molecule `O=S(=O)(NCC1=NN(c2ccc(Cl)cc2Cl)C(c2ccc(Cl)cc2)C1)c1ccsc1` (stereo not shown) [Example 9, Thiophene-3-sulfonic acid [5-(4-chloro-phenyl)-1-(2,4-dichloro-phenyl)-4,5-dihydro-1H-pyrazol-3-ylmethyl]-amide] displayed an IC50 of 67.7 nM and a Ki of 30.6 nM.

`Cc1ccc(C)c(S(=O)(=O)NCC2=NN(c3ccc(Cl)cc3Cl)[C@@H](c3ccc(Cl)cc3)C2)c1` [Example 69, (R)-N-[5-(4-Chloro-phenyl)-1-(2,4-dichloro-phenyl)-4,5-dihydro-1H-pyrazol-3-ylmethyl]-2,5-dimethyl-benzenesulfonamide] showed an IC50 of 36.7 nM and a Ki of 16.2 nM.

In the case of `CCOc1ccc(C2CC(CNS(=O)(=O)c3cccc(Cl)c3Cl)=NN2c2ccc(Cl)cc2Cl)cc1` (stereo not shown) [Example 248, 2,3-Dichloro-N-[1-(2,4-dichloro-phenyl)-5-(4-ethoxy-phenyl)-4,5-dihydro-1H-pyrazol-3-ylmethyl]-benzenesulfonamide], the IC50 is 17.9 nM and affinity was put at a Ki of 7.6 nM.

In turn, `Cc1ccc(F)cc1S(=O)(=O)NCC1=NN(c2ccc(Cl)cc2Cl)[C@@H](c2ccc(Cl)cc2)C1` [Example 63, (R)-N-[5-(4-Chloro-phenyl)-1-(2,4-dichloro-phenyl)-4,5-dihydro-1H-pyrazol-3-ylmethyl]-5-fluoro-2-methyl-benzenesulfonamide] yielded an IC50 of 50.4 nM and a Ki of 21 nM.

`O=S(=O)(NCC1=NN(c2ccc(Cl)cc2Cl)[C@@H](c2ccc(Cl)cc2)C1)c1cc(Cl)ccc1F` [Example 106, (R)-5-Chloro-N-[5-(4-chloro-phenyl)-1-(2,4-dichloro-phenyl)-4,5-dihydro-1H-pyrazol-3-ylmethyl]-2-fluoro-benzenesulfonamide] registered an IC50 of 28.5 nM and an inhibitory constant (Ki) of 11.9 nM.

`CCOc1ccc(C2CC(CNS(=O)(=O)c3cccc(C#N)c3)=NN2c2ccc(Cl)cc2Cl)cc1` (stereo not shown) [Example 271, 3-Cyano-N-[1-(2,4-dichloro-phenyl)-5-(4-ethoxy-phenyl)-4,5-dihydro-1H-pyrazol-3-ylmethyl]-benzenesulfonamide] registered an IC50 of 10.2 nM and a Ki of 4.4 nM.

For the molecule `Cc1ccc(F)cc1S(=O)(=O)NCC1=NN(c2ccc(Cl)cc2Cl)[C@@H](c2ccc(Cl)cc2)[C@H]1C` [Example 74, (4R,5R)-N-[5-(4-Chloro-phenyl)-1-(2,4-dichloro-phenyl)-4-methyl-4,5-dihydro-1H-pyrazol-3-ylmethyl]-5-fluoro-2-methyl-benzenesulfonamide], the IC50 was determined as 11 nM and the Ki was found to be 5.1 nM.

The molecule `COc1ccc(C2CC(CNS(=O)(=O)c3cccc(OC)c3)=NN2c2ccc(Cl)cc2Cl)cc1` (stereo not shown) [Example 221, N-[1-(2,4-Dichloro-phenyl)-5-(4-methoxy-phenyl)-4,5-dihydro-1H-pyrazol-3-ylmethyl]-3-methoxy-benzenesulfonamide] yielded an IC50 of 52.7 nM and a Ki of 23.5 nM.

In the case of `CCOc1ccc(C2CC(CNS(=O)(=O)c3cc(Cl)ccc3F)=NN2c2ccc(Cl)cc2Cl)cc1` (stereo not shown) [Example 100, 5-Chloro-N-[1-(2,4-dichloro-phenyl)-5-(4-ethoxy-phenyl)-4,5-dihydro-1H-pyrazol-3-ylmethyl]-2-fluoro-benzenesulfonamide], the IC50 turned out to be 30.8 nM and the Ki worked out at 12.8 nM.

On to `CCOc1ccc(C2CC(CNS(=O)(=O)c3ccccc3F)=NN2c2ccc(Cl)cc2Cl)cc1` (stereo not shown) [Example 98, N-[1-(2,4-Dichloro-phenyl)-5-(4-ethoxy-phenyl)-4,5-dihydro-1H-pyrazol-3-ylmethyl]-2-fluoro-benzenesulfonafonamide], for which the IC50 turned out to be 47.1 nM and the Ki was 19.8 nM.

The molecule `CCOc1ccc(C2CC(CNS(=O)(=O)c3cc(F)ccc3F)=NN2c2ccc(Cl)cc2Cl)cc1` (stereo not shown) [Example 99, N-[1-(2,4-Dichloro-phenyl)-5-(4-ethoxy-phenyl)-4,5-dihydro-1H-pyrazol-3-ylmethyl]-2,5-difluoro-benzenesulfonamide] returned an IC50 of 42.6 nM and a Ki of 17.9 nM.

`O=S(=O)(NCC1=NN(c2ccc(Cl)cc2Cl)C(c2ccc(Cl)cc2)C1)c1cccnc1` (stereo not shown) [Example 53, Pyridine-3-sulfonic acid [5-(4-chloro-phenyl)-1-(2,4-dichloro-phenyl)-4,5-dihydro-1H-pyrazol-3-ylmethyl]-amide hydrochloride] returned an IC50 of 88.2 nM and a Ki of 43.2 nM.

For the molecule `Cc1ccc(F)cc1S(=O)(=O)NCC1=NN(c2ccc(Cl)cc2Cl)[C@@H](c2ccc(Cl)cc2)[C@H]1C` (racemic) [Example 73, cis-(4RS,5RS)-N-[5-(4-Chloro-phenyl)-1-(2,4-dichloro-phenyl)-4-methyl-4,5-dihydro-1H-pyrazol-3-ylmethyl]-5-fluoro-2-methyl-benzenesulfonamide], the IC50 was 11.8 nM and affinity was put at a Ki of 5.3 nM.

In a further assay the target is CB1-receptor (UniProt P20272). The assay is described as above. On the set-up: % inh; 10^−7 M; compound at 10^−7 M; species or system human or rat. The conditions noted are these: compound at 10^−7 M. The protocol: as §1, §2, §3, §4, §5, §6, §7
For the molecule `O=S(=O)(NCC1=NN(c2ccc(Cl)cc2Cl)C(c2ccc(Cl)cc2)C1)c1cccc(Cl)c1` (stereo not shown) [Example 1, 3-Chloro-N-[5-(4-chloro-phenyl)-1-(2,4-dichloro-phenyl)-4,5-dihydro-1H-pyrazol-3-ylmethyl]-benzenesulfonamide], the “% inh. 10^−7 M” value is 27.1%.

For `COC(=O)CCc1ccc(S(=O)(=O)NCC2=NN(c3ccc(Cl)cc3Cl)C(c3ccc(Cl)cc3)C2)cc1` (stereo not shown) [Example 35, 3-(4-{[5-(4-Chloro-phenyl)-1-(2,4-dichloro-phenyl)-4,5-dihydro-1H-pyrazol-3-ylmethyl]-sulfamoyl}-phenyl)-propionic acid methyl ester], the “% inh. 10^−7 M” value came out at 8.5%.

Turning to `O=S(=O)(NCC1=NN(c2ccc(Cl)cc2Cl)C(c2ccc(Cl)cc2)C1)c1ccsc1` (stereo not shown) [Example 9, Thiophene-3-sulfonic acid [5-(4-chloro-phenyl)-1-(2,4-dichloro-phenyl)-4,5-dihydro-1H-pyrazol-3-ylmethyl]-amide], the “% inh. 10^−7 M” value is 54.3%.

In the case of `O=S(=O)(NCC1=NN(c2ccc(Cl)cc2Cl)C(c2ccc(Cl)cc2)C1)c1csc2ccccc12` (stereo not shown) [Example 37, Benzo[b]thiophene-3-sulfonic acid [5-(4-chloro-phenyl)-1-(2,4-dichloro-phenyl)-4,5-dihydro-1H-pyrazol-3-ylmethyl]-amide], the “% inh. 10^−7 M” value is 27.2%.

`CCCCS(=O)(=O)NCC1=NN(c2ccc(Cl)cc2Cl)C(c2ccc(Cl)cc2)C1` (stereo not shown) [Example 20, Butane-1-sulfonic acid [5-(4-chloro-phenyl)-1-(2,4-dichloro-phenyl)-4,5-dihydro-1H-pyrazol-3-ylmethyl]-amide]: the “% inh. 10^−7 M” value is given as 27.2%.

On to `CCc1ccc(S(=O)(=O)NCC2=NN(c3ccc(Cl)cc3Cl)C(c3ccc(Cl)cc3)C2)cc1` (stereo not shown) [Example 43, N-[5-(4-Chloro-phenyl)-1-(2,4-dichloro-phenyl)-4,5-dihydro-1H-pyrazol-3-ylmethyl]-4-ethyl-benzenesulfonamide], for which the “% inh. 10^−7 M” value was 26.7%.

Take `O=S(=O)(NCC1=NN(c2ccc(Cl)cc2Cl)C(c2ccc(Cl)cc2)C1)c1ccc(OC(F)(F)F)cc1` (stereo not shown) [Example 16, N-[5-(4-Chloro-phenyl)-1-(2,4-dichloro-phenyl)-4,5-dihydro-1H-pyrazol-3-ylmethyl]-4-trifluoromethoxy-benzenesulfonamide]: the “% inh. 10^−7 M” value came out at 88.0%.

For `O=S(=O)(CC1CCCCC1)NCC1=NN(c2ccc(Cl)cc2Cl)C(c2ccc(Cl)cc2)C1` (stereo not shown) [Example 31, N-[5-(4-Chloro-phenyl)-1-(2,4-dichloro-phenyl)-4,5-dihydro-1H-pyrazol-3-ylmethyl]-C-cyclohexyl-methanesulfonamide], the “% inh. 10^−7 M” value is reported as 15.9%.

In the case of `CC(=O)Nc1ccc(S(=O)(=O)NCC2=NN(c3ccc(Cl)cc3Cl)C(c3ccc(Cl)cc3)C2)cc1Cl` (stereo not shown) [Example 41, N-(2-Chloro-4-{[5-(4-chloro-phenyl)-1-(2,4-dichloro-phenyl)-4,5-dihydro-1H-pyrazol-3-ylmethyl]-sulfamoyl}-phenyl)-acetamide], the “% inh. 10^−7 M” value came to 8.2%.

Consider `COc1cc(C)ccc1S(=O)(=O)NCC1=NN(c2ccc(Cl)cc2Cl)C(c2ccc(Cl)cc2)C1` (stereo not shown) [Example 36, N-[5-(4-Chloro-phenyl)-1-(2,4-dichloro-phenyl)-4,5-dihydro-1H-pyrazol-3-ylmethyl]-2-methoxy-4-methyl-benzenesulfonamide], for which the “% inh. 10^−7 M” value was 26.5%.
